# In patent US20240262842A1, “SMALL MOLECULE INHIBITORS OF KRAS G12C MUTANT” (Merck Sharp & Dohme LLC, priority 2021, published 2024):
# pIC50: −log10 of the molar value. Like-named read-outs stand apart in the source and are kept apart here.
# Columns and labels:
# MIA PaCa-2 cells = assay: Growth inhibition activity on KRAS-G12C mutant cell line (CellTiter-Glo 3D); type: cell-based, human; settings: MIA PaCa-2, 3-day culture with compound
# Outline: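 IC50 (nM) derived from inhibition of luminescence (CellTiter-Glo 3D) relative to compound-free wells. Cells were seeded in U-bottom plates, grown 1 day, then exposed to compound for 3 days at 37 °C with 0.2% final DMSO.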
# [1] = target: T1, interaction between GMPPNP-bound recombinant K-Ras4B G12C mutant protein and cRAF RAS-binding domain (cRAF-RBD) (Homo sapiens, UniProt P01116, G12C); assay: Inhibitory activity on interaction between KRAS G12C and cRAF (Alpha technology)
# T1 construct: His-tag (N)
# T1 sequence (P01116 with tags, fused parts or gaps isoform P01116-2 G12C): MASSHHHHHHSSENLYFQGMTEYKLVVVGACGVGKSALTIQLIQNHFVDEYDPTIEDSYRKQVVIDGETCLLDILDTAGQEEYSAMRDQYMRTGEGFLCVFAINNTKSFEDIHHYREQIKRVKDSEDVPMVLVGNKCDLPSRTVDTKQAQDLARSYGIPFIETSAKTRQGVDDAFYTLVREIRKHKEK
# Outline: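 Alpha signal measured 1.5 h after adding cRAF-RBD (aa 50-132) and detection reagents to GMPPNP-bound KRAS G12C (aa 1-169) pretreated 1 h at 25° C with compound (pH 7.5 buffer). 0% inhibition = DMSO, 100% = GDP-loaded KRAS; IC50 by curve fit.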
# [2] = Homo sapiens, MIA PaCa-2, 72 h, Table 3-1
# [3] = IC50, GMPPNP-bound KRAS G12C incubated with compound 25° C. 1 hour, Table 2-1
# [4] = GMPPNP-bound KRAS G12C incubated with compound 25° C. 1 hour, Table 2-1, read-out: IC50
# [5] = Homo sapiens, MIA PaCa-2, 72 h, Table 3
# [6] = IC50, GMPPNP-bound KRAS G12C incubated with compound 25° C. 1 hour, Table 2
SMILES,pIC50 (MIA PaCa-2 cells; [2]),"pIC50 [1, 4]",also measured
"CO[C@H]1CC[C@H](NC/C=C/C(=O)Nc2c(F)cc(C(=O)c3cn4c5c(cccc35)-c3c(C(F)(F)F)cc5c(nc(C)n5C)c3N(C)C(=O)C4)cc2F)CC1 [Example 76, (E)-N-(2,6-difluoro-4-(8,9,11-trimethyl-12-oxo-6-(trifluoromethyl)-8,11,12,13-tetrahydro-imidazo[4″,5″:5′,6′]benzo-[1′,2′:5,6][1,4]diazocino-[7,8,1-hi]indole-2-carbon-yl)phenyl)-4-(((1r,4r)-4-methoxycyclohexyl)-amino)but-2-enamide]",8.15,,"pIC50 [1, 3]: 7.65"
"CO[C@H]1CC[C@H](NC/C=C/C(=O)Nc2c(F)cc(C(=O)c3cc4c5c(cccn35)-c3c(C)cc5c(nc(C)n5C)c3N(C)CC4)cc2F)CC1 (single isomer, unassigned) [Example 69, (E)-N-(2,6-difluoro-4-(7,9,10,12-tetramethyl-9,12,13,14-tetrahydro-imidazo[4″,5″:5′,6′]benzo-[1′,2′:2,3]azocino[4,5,6-hi]indolizine-2-carbonyl)-phenyl)-4-(((1r,4r)-4-methoxycyclohexyl)-amino)but-2-enamide]",7.81,7.70,
Cc1nc2c3c(c(C(F)(F)F)cc2n1C)-c1cccc2c(C(=O)c4cc(F)c(NC(=O)/C=C/CNC5(C)COC5)c(F)c4)cn(c12)CC(=O)N3C [Example 77],7.27,,"pIC50 [1, 3]: 7.09"
"CCN(CC)[C@H]1CC[C@H](NC/C=C/C(=O)Nc2c(F)cc(C(=O)c3cn4c5c(cccc35)-c3c(C(F)(F)F)cc5c(nc(C)n5C)c3N(C)CC4)cc2F)CC1 [Example 102, (E)-4-(((1r,4r)-4-(diethyl-amino)cyclohexyl)amino)-N-(2,6-difluoro-4-(8,9,11-trimethyl-6-(trifluoro-methyl)-8,11,12,13-tetra-hydroimidazo[4″,5″:5′,6′]-benzo[1′,2′:5,6][1,4]-diazocino[7,8,1-hi]indole-2-carbonyl)phenyl)but-2-enamide]",7.98,,"pIC50 [1, 3]: 7.95"
"CC1Cc2cc(C(=O)c3cc(F)c(NC(=O)/C=C/CNC4(C)COC4)c(F)c3)n3cccc(c23)-c2c(C(F)(F)F)cc3c(ncn3C)c2O1 (single isomer, unassigned) [Example 131, (E)-N-(4-(9,13-dimethyl-7-(trifluoromethyl)-13,14-dihydro-9H-imidazo[4″,5″:5′,6′]benzo[1′,2′:2,3]oxocino[4,5,6-hi]indolizine-2-carbonyl)-2,6-difluorophenyl)-4-((3-methyloxetan-3-yl)amino)but-2-enamide]",,7.55,pIC50 (MIA PaCa-2 cells; Table 3-1): 7.39
"CO[C@H]1CC[C@H](NC/C=C/C(=O)Nc2c(F)cc(C(=O)c3cn4c5c(cccc35)-c3c(Cl)cc(N5CCCC5=O)cc3OCC4)cc2F)CC1 [Example 8, (E)-N-(4-(10-chloro-8-(2-oxopyrrolidin-1-yl)-4,5-dihydrobenzo[7,8][1,4]oxazocino[6,5,4-hi]indole-1-carbonyl)-2,6-difluorophenyl)-4-(((1r,4t)-4-methoxycyclohexyl)amino)but-2-enamide]",,,"pIC50 (MIA PaCa-2 cells; [5]): 6.80; pIC50 [1, 6]: 6.82"
"Cc1c2cc(C(F)(F)F)c3c(c2nn1C)N(C)CCc1cc(C(=O)c2cc(F)c(NC(=O)/C=C/CNC4(C)COC4)c(F)c2)n2cccc-3c12 [Example 146, (E)-N-(2,6-difluoro-4-(9,10,12-trimethyl-7-(trifluoromethyl)-10,12,13,14-tetrahydroindolizino[8′,1′:4,5,6]azocino[3,2-g]indazole-2-carbonyl)phenyl)-4-((3-methyloxetan-3-yl)amino)but-2-enamide]",7.71,7.69,
"Cc1c2c3c(cccn3c1C(=O)c1cc(F)c(NC(=O)/C=C/CNC3(C)COC3)c(F)c1)-c1c(C(F)(F)F)cc3c(nc(C)n3C)c1OCC2 [Example 58, (E)-N-(2,6-difluoro-4-(1,9,10-trimethyl-7-(tri-fluoromethyl)-13,14-dihydro-9H-imidazo-[4″,5″:5′,6′]benzo[1′,2′: 2,3]oxocino[4,5,6-hi]-indolizine-2-carbonyl)-phenyl)-4-((3-methyl-oxetan-3-yl)amino)but-2-enamide]",7.15,7.11,
"CO[C@H]1CC[C@H](NC/C=C/C(=O)Nc2c(F)cc(C(=O)c3cn4c5c(cccc35)-c3c(C(F)(F)F)cc5c(nc(C)n5C)c3CCCC4)cc2F)CC1 [Example 29, (E)-N-(4-(8,9-dimethy 1-6-(trifluoromethyl)-11,12,13,14-tetrahydro-8H-imidazo[4″,5″:3′,4′]benzo[1′,2:4,5]azonino[3,2,1-hi]indole-2-carbonyl)-2,6-difluorophenyl)-4-(((1r,4r)-4-methoxycyclohexyl)amino)but-2-enamide]",,,"pIC50 (MIA PaCa-2 cells; [5]): 7.28; pIC50 [1, 6]: 6.66"
Cc1nc2c3c(c(C(F)(F)F)cc2n1C)-c1cccn2c(C(=O)c4cc(F)c(NC(=O)/C=C/CNC(C)(C)CF)c(F)c4)cc(c12)CCO3 [Example 56],7.90,7.91,
"Cc1cc2c(nc(C)n2C)c2c1-c1cccc3c(C(=O)c4cc(F)c(NC(=O)/C=C/CNC5COC(C)(C)C5)c(F)c4)cn(c13)CCN2C (stereo not drawn) [Example 124, (E)-N-(2,6-difluoro-4-(6,8,9,11-tetramethyl-8,11,12,13-tetrahydro-imidazo[4″,5″:5′,6′]benzo-[1′,2′:5,6][1,4]diazocino-[7,8,1-hi]indole-2-carbon-yl)phenyl)-4-((5,5-dimeth-yltetrabydrofuran-3-yl)-amino)but-2-enamide]",7.86,,"pIC50 [1, 3]: 7.89"
"CO[C@H]1CC[C@H](NC/C=C/C(=O)Nc2c(F)cc(C(=O)c3cn4c5c(cccc35)-c3c(C)cc5c(nc(C)n5C)c3OC4)cc2F)CC1 [Example 16, (E)-N-(2,6-difluoro-4-(2,3,5-trimethyl-3H,12H-imidazo[4″,5″.3′,4′]benzo[1′,2:6,7][1,3]oxazepino[5,4,3-hi]indole-9-carbonyl)phenyl)-4-(((1r,4r)-4-methoxycyclohexyl)amino)but-2-enamide]",,,"pIC50 (MIA PaCa-2 cells; [5]): 7.25; pIC50 [1, 6]: 7.00"
"Cc1nnc2c3c(c(C(F)(F)F)cn12)-c1cccn2c(C(=O)c4cc(F)c(NC(=O)/C=C/CNC5(C)CC5)c(F)c4)cc(c12)CCN3C (single isomer, unassigned) [Example 223, (E)-N-(4-(10,13-dimethyl-7-(trifluoromethyl)-14,15-dihydro-13H-[1,2,4]-triazolo[4″,3″:1′,2′]-pyrido[3′,4′:2,3]azocino-[4,5,6-hi]indolizine-2-carbonyl)-2,6-difluoro-phenyl)-4-((1-methyl-cyclopropyl)amino)but-2-enamide]",7.63,7.70,
"Cn1cnc2c3c(c(C(F)(F)F)cc21)-c1cccn2c(C(=O)c4cc(F)c(NC(=O)/C=C/CN5CCC[C@@](C)(O)C5)c(F)c4)cc(c12)CCO3 [Example 195, (R,E)-N-(2,6-difluoro-4-(9-methyl-7-(trifluoro-meth-yl)-13,14-dihydro-9H-imidazo[4″,5″:5′,6′]-benzo[1′,2′:2,3]oxocino-[4,5,6-hi]indolizine-2-carbonyl)phenyl)-4-(3-hydroxy-3-methylpiper-idin-1-yl)but-2-enamide]",7.71,7.40,
"CC1Cc2cc(C(=O)c3cc(F)c(NC(=O)/C=C/CNC4(C)COC4)c(F)c3)n3cccc(c23)-c2c(C(F)(F)F)cc3c(ncn3C)c2O1 (stereo not drawn) [Example 130, (E)-N-(4-(9,13-dimethyl-7-(trifluoromethyl)-13,14-dihydro-9H-imidazo[4″,5″:5′,6′]benzo[1′,2′:2,3]oxocino[4,5,6-hi]indolizine-2-carbonyl)-2,6-difluorophenyl)-4-((3-methyloxetan-3-yl)amino)but-2-enamide]",7.08,7.38,
